# Tested on: IL-6, IL-8 and Cox-2 mRNA
# Assay: TNF-α- and LPS-induced IL-6, IL-8 and Cox-2 mRNA in SAEC (RT-PCR)
# Format: cell-based, human
# Conditions: TNF-α 2 nM or LPS 1 μg/ml, 6 h
# Method: The SAEC were grown in 6-well plates at a density of approximately 3.0×10^5 cells/well. After approximately 80% confluence cells were serum-starved in the presence or absence of sorbinil (20 μM) or carrier for 24 h and then stimulated with either TNF-α (2 nM) or LPS (1 μg/mL). Total RNA from SAEC was isolated by using RNeasy kit (Qiagen) as per supplier's instructions. Aliquots of RNA (0.5-1.0 μg) isolated from each sample were reverse transcribed with Omniscript and Sensiscript reverse transcriptase one-step RT-PCR system with HotStar Taq DNApolymerase (Qiagen) at 55° C. for 30 min followed by PCR amplification. The oligonucleotide primer sequences were as follows: 5′-[…]-3′ (SEQ ID NO:3) (sense) and 5′-[…]-3′ (SEQ ID NO:4) (antisense) for IL-6; 5′-[…]-3′ (SEQ ID NO:5) (sense) and 5′-TCT […]-3′ (SEQ ID NO:6) (antisense) for IL-8; 5′-TGAAACCCACTCCA AACACAG-3′ (SEQ ID NO:7) (sense) and 5′-[…]-3′ (SEQ ID NO:8) (antisense) for Cox-2; and 5′-[…]-3′ (SEQ ID NO:9) (sense) and 5′-CGTC […]-3′ (SEQ ID NO:10) (antisense) for β-actin. PCR was carried out in a PCR Sprint thermal cycler (Thermo electron corporation, Milford, Mass.) under the following conditions: initial denaturation at 95° C. for 15 min followed by 35 cycles of 94° C. 1 min, 62° C. 1 min, 72° C. 1 min, and then 72° C. 10 min for final extension. […]
structure (smiles),measurement,value
O=C(O)Cc1nn(Cc2nc3cc(C(F)(F)F)ccc3s2)c(=O)c2ccccc12 [zopolrestat],prevention of TNF-α- and LPS-induced increase of Cox-2 mRNA levels,> 60%

# — patent US9198915B2, “Methods involving aldose reductase inhibitors” (The Board of Regents of The University of Texas System, priority 2007, dated 2015)
